Our source for the IC50 values is ChEMBL document CHEMBL1153720, “Three dimensional pharmacophore modelling for c-Kit receptor tyrosine kinase inhibitors” (Eur J Med Chem, 2010).

In this assay the target is Mast/stem cell growth factor receptor Kit (Homo sapiens, UniProt P10721). The assay is described as follows: Inhibition of c-Kit by HTRF method. On the technique in general: TR-FRET usually uses a lanthanide donor and a delayed reading to cut background.
Chain of Mast/stem cell growth factor receptor Kit (P10721 whole entry): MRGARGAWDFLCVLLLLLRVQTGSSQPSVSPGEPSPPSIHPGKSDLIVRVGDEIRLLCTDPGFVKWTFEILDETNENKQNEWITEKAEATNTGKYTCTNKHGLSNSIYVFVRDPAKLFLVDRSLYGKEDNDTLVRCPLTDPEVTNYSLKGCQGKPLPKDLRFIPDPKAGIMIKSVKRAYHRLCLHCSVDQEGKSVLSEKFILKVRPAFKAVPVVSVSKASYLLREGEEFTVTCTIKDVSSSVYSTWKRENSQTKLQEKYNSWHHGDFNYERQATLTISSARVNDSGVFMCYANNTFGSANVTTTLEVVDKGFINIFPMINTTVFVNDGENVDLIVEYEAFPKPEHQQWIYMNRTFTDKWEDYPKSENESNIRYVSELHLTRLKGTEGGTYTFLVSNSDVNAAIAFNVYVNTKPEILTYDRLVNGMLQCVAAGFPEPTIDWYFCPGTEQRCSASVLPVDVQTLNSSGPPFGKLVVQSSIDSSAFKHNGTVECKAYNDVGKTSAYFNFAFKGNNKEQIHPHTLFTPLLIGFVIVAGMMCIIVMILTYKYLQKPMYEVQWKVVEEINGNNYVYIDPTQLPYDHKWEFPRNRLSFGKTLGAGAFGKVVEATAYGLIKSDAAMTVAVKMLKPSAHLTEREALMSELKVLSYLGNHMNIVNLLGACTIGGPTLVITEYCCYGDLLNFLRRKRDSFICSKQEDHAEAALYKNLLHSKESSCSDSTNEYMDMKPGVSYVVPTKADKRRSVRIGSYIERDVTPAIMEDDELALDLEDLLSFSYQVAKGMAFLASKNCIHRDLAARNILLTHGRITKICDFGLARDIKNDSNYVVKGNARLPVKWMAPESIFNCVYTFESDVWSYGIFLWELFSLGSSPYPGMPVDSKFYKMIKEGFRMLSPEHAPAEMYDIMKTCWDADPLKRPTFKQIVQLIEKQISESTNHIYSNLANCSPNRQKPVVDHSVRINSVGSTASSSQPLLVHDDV

A word on the IC50: it is the concentration that inhibits the measured activity by half. Take `Cc1ccccc1NC(=O)Nc1ccc(-c2c(C)sc3ncnc(N)c23)c(Cl)c1`: the IC50 stood at 200 nM.
